Structures can show the parent of a compound that is named as a salt.
molecular target: T1, hDGAT1 (Homo sapiens, UniProt O75907); test: In-vitro DGAT1 assay with hDGAT1 microsomes from Sf9 cells (14C oleoyl CoA, scintillation counting); format: biochemical; conditions: at 1 μM
T1 construct: made in house; host or cells: Sf9 insect cells (baculovirus); microsomal fraction
T1 sequence (O75907 1-488): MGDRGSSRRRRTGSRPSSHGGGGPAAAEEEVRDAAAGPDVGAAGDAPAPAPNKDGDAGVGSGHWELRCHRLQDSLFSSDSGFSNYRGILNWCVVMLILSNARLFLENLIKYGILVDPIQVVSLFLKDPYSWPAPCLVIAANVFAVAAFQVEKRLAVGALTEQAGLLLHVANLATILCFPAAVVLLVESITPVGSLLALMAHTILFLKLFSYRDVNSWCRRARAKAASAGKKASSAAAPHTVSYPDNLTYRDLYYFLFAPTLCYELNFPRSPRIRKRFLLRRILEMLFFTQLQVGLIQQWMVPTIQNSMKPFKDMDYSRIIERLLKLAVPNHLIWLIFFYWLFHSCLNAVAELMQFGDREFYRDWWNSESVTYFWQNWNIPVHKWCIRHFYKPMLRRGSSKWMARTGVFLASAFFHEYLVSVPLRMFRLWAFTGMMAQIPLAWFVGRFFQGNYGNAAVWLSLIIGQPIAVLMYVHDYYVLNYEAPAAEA
Outline: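 Radiolabelled triglyceride formation was measured: heptane extracts were scintillation-counted after a 10-min, 37 °C reaction stopped with alkaline ethanol. Enzyme was human DGAT1 in baculovirus-infected Sf9 microsomal membranes; substrates were 14C oleoyl-CoA plus dioleoylglycerol. Runs were duplicated, and inhibition (%) was related to nM compound concentration.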

Row | SMILES | Percentage inhibition of hDGAT1
1 | CC(C)(Cc1ncc(-c2ccc(NC(=O)c3ccc(-c4ccccc4)cc3)cc2)o1)C(=O)O [Example 128, 3-(5-(4-Biphenyl-4-ylcarboxamidophenyl)oxazol-2-yl)-2,2-dimethylpropanoic acid] | + (20-50% Inhibition)
2 | O=C(O)CCCc1ncc(-c2ccc(NC(=O)c3ccc(-c4ccccc4)cc3)cc2)s1 [Example 61, 4-(5-(4-Biphenyl-4-ylcarboxamidophenyl)thiazol-2-yl)butanoic acid] | ++ (>50 % Inhibition)
3 | Cc1ccc(Cl)cc1NC(=O)Nc1ccc(-c2cnc(C3CCC(C(=O)O)CC3)s2)cc1 (stereo not shown) [Example 164] | ++ (>50 % Inhibition)
4 | O=C(Nc1ccc(-c2noc([C@H]3CC[C@H](C(=O)O)CC3)n2)cc1)Nc1ccc(Cl)cc1Oc1ccccc1 [Example 227, (1r,4r)-4-(3-(4-(3-(4-Chloro-2-phenoxyphenyl)ureido)phenyl)-1,2,4-oxadiazol-5-yl)cyclohexanecarboxylic acid] | ++ (>50 % Inhibition)
5 | CC(C)(CCc1ncc(-c2ccc(NC(=O)Nc3cc(F)c(F)cc3F)cc2)s1)C(=O)[O-].[Na+] [Example 237A, Sodium salt of 2,2-dimethyl-4-(5-(4-(3-(2,4,5-trifluorophenyl)ureido)phenyl)thiazol-2-yl)butanoate] | ++ (>50 % Inhibition)

The remaining lines, values ahead:

Row | Percentage inhibition of hDGAT1 | SMILES
6 | + (20-50% Inhibition) | O=C(Nc1ccc(-c2cnc(CNS(=O)(=O)C(F)(F)F)s2)cc1)c1ccccc1Cl [Example 551]
7 | ++ (>50 % Inhibition) | O=C(Nc1ccc(-c2cnc(CCNS(=O)(=O)C(F)(F)F)s2)cc1)Nc1ccc(C(F)(F)F)cc1 [Example 526]

same assay, conditions: read-out: Percentage inhibition of hDGAT1

Row | SMILES | inhibition at 1 µM [%]
8 | CC(C)(CCc1ncc(-c2ccc(NC(=O)NCc3ccc(C#N)cc3)cc2)s1)C(=O)O [Example 265, 4-(5-(4-(3-(4-Cyanobenzyl)ureido)phenyl)thiazol-2-yl)-2,2-dimethylbutanoic acid] | 20 to 50
9 | CC(C)(CCc1ncc(-c2ccc(NC(=O)N3CCOCC3)cc2)s1)C(=O)O [Example 241, 2,2-Dimethyl-4-(5-(4-(morpholine-4-carboxamido)phenyl)thiazol-2-yl)butanoic acid] | 20 to 50
10 | CC(C)(CCc1ncc(-c2ccc(NC(=O)Nc3ccc4c(c3)OCCO4)cc2)s1)C(=O)O [Example 245, 4-(5-(4-(3-(2,3-Dihydrobenzo[b][1,4]dioxin-6-yl)ureido)phenyl)thiazol-2-yl)-2,2-dimethylbutanoic acid] | > 50
11 | COc1ccc(S(=O)(=O)Nc2ccc(-c3cnc(CC(C)(C)CC(=O)O)s3)cc2)c(OC)c1 [Example 81, 4-(5-(4-(2,4-Dimethoxyphenylsulfonamido)phenyl)thiazol-2-yl)-3,3-dimethylbutanoic acid] | 20 to 50
12 | O=C(Nc1ccc(-c2ccn(C3CCC(C(=O)O)CC3)n2)cc1)Nc1cccc(C(F)(F)F)c1 (stereo not shown) [Example 315, 4-(3-(4-(3-(3-(Trifluoromethyl)phenyl)ureido)phenyl)-1H-pyrazol-1-yl)cyclohexanecarboxylic acid] | 20 to 50
13 | CC(=O)NC(=O)CC1CCC(c2ncc(-c3ccc(NC(=O)Nc4ccccc4Cl)cc3)s2)CC1 (stereo not shown) [Example 400, N-Acetyl-2-(4-(5-(4-(3-(2-chlorophenyl)ureido)phenyl)thiazol-2-yl)cyclohexyl)acetamide] | > 50
14 | COc1ccc(S(=O)(=O)Nc2ccc(-c3cnc(CCCC(=O)O)s3)cc2)c(OC)c1 [Example 63, 4-(5-(4-(2,4-Dimethoxyphenylsulfonamido)phenyl)thiazol-2-yl)butanoic acid] | 20 to 50
15 | CC(C(=O)O)N1CCC(c2ncc(-c3ccc(NC(=O)Nc4ccccc4Cl)cc3)s2)CC1 (stereo not shown) [Example 455, 2-(4-(5-(4-(3-(2-Chlorophenyl)ureido)phenyl)thiazol-2-yl)piperidin-1-yl)propanoic acid] | > 50
16 | Cc1cccc(Cl)c1NC(=O)Nc1ccc(-c2cnc(C3CCC(C(=O)O)CC3)s2)cc1 (stereo not shown) [Example 162, 4-(5-(4-(3-(2-Chloro-6-methylphenyl)ureido)phenyl)thiazol-2-yl)cyclohexane carboxylic acid] | > 50
17 | CC(C)(O)CC1CCC(c2ncc(-c3ccc(NC(=O)Nc4cc(F)cc(F)c4)cc3)s2)CC1 (stereo not shown) [Example 408, 1-(3,5-Difluorophenyl)-3-(4-(2-(4-(2-hydroxy-2-methylpropyl)cyclohexyl)thiazol-5-yl)phenyl)urea] | > 50
18 | CC(C)(CCc1ncc(-c2ccc(NC(=O)Nc3nnn[nH]3)cc2)s1)C(=O)O [Example 247, 4-(5-(4-(3-(1H-tetrazol-5-yl)ureido)phenyl)thiazol-2-yl)-2,2-dimethylbutanoic acid] | 20 to 50
19 | CC(C)(CCc1ncc(-c2ccc(NC(=O)NC3Cc4ccccc4C3)cc2)s1)C(=O)O [Example 251, 4-(5-(4-(3-(2,3-Dihydro-1H-inden-2-yl)ureido)phenyl)thiazol-2-yl)-2,2-dimethyl butanoic acid] | > 50
20 | Cc1nnc(CC2CCC(c3ncc(-c4ccc(NC(=O)Nc5cc(F)c(F)cc5F)cc4)s3)CC2)o1 (stereo not shown) [Example 382, 1-(4-(2-(4-((5-Methyl-1,3,4-oxadiazol-2-yl)methyl)cyclohexyl)thiazol-5-yl)phenyl)-3-(2,4,5-trifluorophenyl)urea] | > 50
21 | Cc1nnc(CC2CCC(c3ncc(-c4ccc(NC(=O)c5c(F)cccc5F)cc4)s3)CC2)o1 (stereo not shown) [Example 385, 2,6-Difluoro-N-(4-(2-(4-((5-methyl-1,3,4-oxadiazol-2-yl)methyl)cyclohexyl)thiazol-5-yl)phenyl)benzamide] | 20 to 50
22 | O=C(O)CC1CCC(c2ncc(-c3ccc(NC(=O)Nc4ccccc4F)cc3)s2)CC1 (stereo not shown) [Example 348, 2-(4-(5-(4-(3-(2-Fluorophenyl)ureido)phenyl)thiazol-2-yl)cyclohexyl)acetic acid] | > 50
23 | Cc1nnc(CC2CCC(c3ncc(-c4ccc(N)cc4)s3)CC2)s1 (stereo not shown) [Example 413, 4-(2-(4-((5-Methyl-1,3,4-thiadiazol-2-yl)methyl)cyclohexyl)thiazol-5-yl)aniline] | > 50
24 | CCCCCc1ccc(C(=O)Nc2ccc(-c3cnc(CCC(=O)O)s3)cc2)cc1 [Example 17, 3-(5-(4-(4-Pentylbenzamido)phenyl)thiazol-2-yl)propanoic acid] | > 50

Further lines, results first:

Row | inhibition at 1 µM [%] | SMILES
25 | > 50 | CC(C)(NS(=O)(=O)C(F)(F)F)c1ncc(-c2ccc(NC(=O)NC3CCCCC3)cc2)s1 [Example 567, N-(2-(5-(4-(3-Cyclohexylureido)phenyl)thiazol-2-yl)propan-2-yl)-1,1,1-trifluoromethanesulfonamide]
26 | 20 to 50 | CC(C)(NS(=O)(=O)C(F)(F)F)c1ncc(-c2ccc(NC(=O)Nc3c(F)cc(F)cc3F)cc2)s1 [Example 566, 1,1,1-Trifluoro-N-(2-(5-(4-(3-(2,4,6-trifluorophenyl)ureido)phenyl)thiazol-2-yl)propan-2-yl)methanesulfonamide]
27 | > 50 | CC(C)(NS(=O)(=O)C(F)(F)F)c1ncc(-c2ccc(NC(=O)Nc3cc(F)cc(F)c3)cc2)s1 [Example 564, N-(2-(5-(4-(3-(3,5-Difluorophenyl)ureido)phenyl)thiazol-2-yl)propan-2-yl)-1,1,1-trifluoromethanesulfonamide]
28 | 20 to 50 | O=C(Nc1ccc(-c2cnc(C3CCNCC3)s2)cc1)Nc1cc(F)c(F)cc1F [Example 480, 1-(4-(2-(Piperidin-4-yl)thiazol-5-yl)phenyl)-3-(2,4,5-trifluorophenyl)urea hydrochloride]
29 | > 50 | O=C(Nc1ccc(-c2cnc(CNS(=O)(=O)C(F)(F)F)s2)cc1)Nc1cc(F)cc(F)c1 [Example 545, N-((5-(4-(3-(3,5-Difluorophenyl)ureido)phenyl)thiazol-2-yl)methyl)-1,1,1-trifluoromethanesulfonamide]
30 | > 50 | O=C(Nc1ccc(-c2cnc(C34CC5CC(CC(C(=O)O)(C5)C3)C4)s2)cc1)Nc1ccc(F)c(F)c1F [Example 510, 3-(5-(4-(3-(2,3,4-Trifluorophenyl)ureido)phenyl)thiazol-2-yl)adamantane-1-carboxylic acid]
31 | > 50 | O=C(Nc1ccc(-c2cnc(CNS(=O)(=O)C(F)(F)F)s2)cc1)Nc1ccccc1F [Example 544, 1,1,1-Trifluoro-N-((5-(4-(3-(2-fluorophenyl)ureido)phenyl)thiazol-2-yl)methyl)methanesulfonamide]
32 | > 50 | O=C(Nc1ccc(-c2cnc(C34CC5CC(CC(C(=O)O)(C5)C3)C4)s2)cc1)Nc1cc(F)c(F)cc1F [Example 508, 3-(5-(4-(3-(2,4,5-Trifluorophenyl)ureido)phenyl)thiazol-2-yl)adamantane-1-carboxylic acid]
33 | 20 to 50 | O=S(=O)(Nc1ccc(-c2cnc(CNS(=O)(=O)C(F)(F)F)s2)cc1)c1ccccc1 [Example 553, N-(4-(2-((Trifluoromethylsulfonamido)methyl)thiazol-5-yl)phenyl)benzene sulfonamide]
34 | > 50 | N#CN=C(Nc1ccc(-c2cnc(CCNS(=O)(=O)C(F)(F)F)s2)cc1)Nc1ccccc1F [Example 537, N-(2-(5-(4-(2-Cyano-3-(2-fluorophenyl)guanidino)phenyl)thiazol-2-yl)ethyl)-1,1,1-trifluoromethanesulfonamide]

Reference: patent US20130158075A1, “HETEROCYCLIC COMPOUNDS AS DGAT1 INHIBITORS” (PIRAMAL ENTERPRISES LIMITED, priority 2010, published 2013)
